Measured values as given in patent US20050124683A1, “HIV protease inhibitors, compositions containing the same, their pharmaceutical uses and materials for their synthesis” (priority 2003, published 2005).
Like-named read-outs stand apart in the source and are kept apart here.

Experiments:
[1] = molecular target: T1, HIV-1 protease (Human immunodeficiency virus type 1 group M subtype B, UniProt P04585, Q495S); experiment: HIV-1 Protease RET assay (Ki, resonance energy transfer); assay type: biochemical; settings: Q7S mutant HIV-1 protease
T1 construct: made in house
Protocol: Ki's for the inhibitors of HIV-1 protease were determined using a resonance energy transfer (RET) assay. […] This enzyme is first partially purified as inclusion bodies from cell lysate. It is then solublized in 8M urea and passed through a Q-Sepharose column (Pharmacia) for further purification. To refold this protein, samples containing Q7S is dialyzed into 50 mM sodium phosphate pH 7.0, 50 mM NaCl, 10 mM DTT, and 10% glycerol.
The commercially available peptide substrate (Molecular Probes Cat. # H-2930) RE(EDANS)SQNYPIVQK(DABCYL)R is used to assess activity and Ki's. This peptide is cleaved quantitatively by HIV-1 Pr at the Tyr-Pro bond. The EDANS fluorophore absorbs at 340 nm and emits at 490 nm. The reaction is carried out in a 96 well plate in a total volume of 100 µL and is run for 12 minutes at 37C under steady-state conditions with 5 µM substrate and 2 nM active dimer enzyme concentration. The literature value Km for this substrate and enzyme is 103+/−8 μM (See Matayoshi, et al., “Novel Fluorogenic Substrates for Assaying Retroviral Proteases by Resonance Energy Transfer,” Science 247, 954 (1990)). The buffer for this reaction is 0.1M sodium acetate pH 4.8, 1M NaCl, 1 mM EDTA, 5 mM dithiothreitol, 10% dimethyl sulfoxide and 1 mg/ml bovine serum albumin. Inhibition curves are fit using the Morrison tight binding equation.

[2] = system: HIV-1; experiment: Antiviral EC50 in HIV-infected T-cell lines (CPE inhibition / susceptibility assays); assay type: cell-based; settings: Human immunodeficiency virus 1, T-cell
Protocol: T-cell lines, CEM-SS, and MT-2, and viruses HIV-1 RF and HIV-1 NL4-3 (pNL4-3) were obtained from the National Institutes of Health (AIDS Research and Reference Reagent Program, Bethesda, MD).
The ability of compounds to protect cells against HIV infection was measured by the […] dye reduction method, essentially as described (See Pauwels, R. Balzarini, J. Baba, M. Snoeck, R. Schols, D. Herdewijn, P. Desmyter, J. and De Clercq, E. 1988, “Rapid and automated tetrazolium-based colorimetric assay for the detection of anti-HIV compounds,”. J Virol. Methods., 20: 309-321 and Weislow, O. S. Kiser, R. Fine, D. L. Bader, J. Shoemaker, R. H. and Boyd, M. R. 1989. “New soluble-formazan assay for HIV-1 cytopathic effects: application to high-flux screening of synthetic and natural products for AIDS-antiviral activity”. J. Natl. Cancer Inst. 81:577-586). Subject cells were infected with test virus at an moi of 0.025 to 0.819 or mock infected with medium only and added at 2×10^4 cells per well into 96 well plates containing half-log dilutions of test compounds. Six days later, 50 μl of XTT (1 mg/ml XTT tetrazolium, […] phenazine methosulfate) was added to the wells and the plate was reincubated for four hours. Viability, as determined by the amount of XTT formazan produced, was quantified spectrophotometrically by absorbance at 450 nm. Data from CPE assays were expressed as the percent of formazan produced in compound-treated cells compared to formazan produced in wells of uninfected, compound-free cells. The fifty percent effective concentration (EC50) was calculated as the concentration of compound that effected an increase in the percentage of formazan production in infected, compound-treated cells to 50% of that produced by uninfected, compound-free cells. The 50% cytotoxicity concentration (CC50) was calculated as the concentration of compound that decreased the percentage of formazan produced in uninfected, compound-treated cells to 50% of that produced in uninfected, compound-free cells. The therapeutic index was calculated by dividing the cytotoxicity (CC50) by the antiviral activity (EC50).
Compounds were tested in phenotypic susceptibility assays at Virologic, Inc., (See Petropoulos C. J., Parkin N. T., Limoli K. L., Lie Y. S., Wrin T., Huang W., Tian H., Smith D., Winslow G. A., Capon D J, Whitcomb J M. 2000, “A novel phenotypic drug susceptibility assay for human immunodeficiency virus type 1,” Antimicrob Agents Chemother 44(4):920-928) or using the assay described here. MT-2 cells were infected with either HIV-1 NL4-3 or HIV-1 NL4-3(I84V/L90M) and incubated in the presence of serial 0.5 log dilutions of test compounds. Three days later, culture supernatants were collected and virus production, as determined by p24 ELISA, was assayed. Percent inhibition was calculated as p24 concentration in compound-treated samples as compared to infected, compound-free controls. Inhibition of viral replication is determined by measuring reduction in HIV p24 present in the culture supernatant, using a Beckman-Coulter p24 HIV-1 Ag EIA kit and following the supplied protocol. Absorbance is read on a MRX microplate reader (Dynex Technologies). The EC50 was calculated as the concentration of compound that effected a decrease in the p24 production by infected, compound-treated cells to 50% of that produced by infected, compound-free cells.

[3] = read-out: EC50 (wt) (nm), wt virus
[4] = read-out: Ave. EC50, average, unit inferred

Cc1ccccc1CNC(=O)[C@H]1N(C(=O)[C@@H](O)[C@H](Cc2cccc(F)c2)NC(=O)c2cccc(O)c2C)CC(F)(F)C1(C)C
Ki ([1]; read-out: Ki (nm)): < 0.1 nM | EC50 [2, 3]: 17 nM

CCCNC(=O)C1N(C(=O)[C@@H](O)[C@H](Cc2ccccc2)NC(=O)c2cc(C)cc(O)c2C)CC(F)(F)C1(C)C (some centres unmarked)
Ki ([1]; read-out: Ki (nm)): < 0.1 nM | EC50 [2, 3]: 9 nM

Cc1cnccc1CNC(=O)C1N(C(=O)[C@@H](O)[C@H](Cc2ccccc2)NC(=O)c2cccc(O)c2C)CC(F)(F)C1(C)C (some centres unmarked)
Ki ([1]; read-out: Ki (nm)): < 0.1 nM | EC50 [2, 3]: 8 nM

Cc1c(O)cccc1C(=O)N[C@@H](Cc1cccc(F)c1)[C@H](O)C(=O)N1CC(F)(F)C(C)[C@H]1C(=O)NCC(F)(F)F (some centres unmarked)
Ki ([1]; read-out: Ki (nm)): < 0.1 nM | EC50 [2, 3]: 10 nM

COC[C@H](C)NC(=O)[C@H]1N(C(=O)[C@@H](O)[C@H](Cc2cccc(F)c2)NC(=O)c2cccc(O)c2C)CC(F)(F)C1(C)C
Ki ([1]; read-out: Ki (nm)): < 0.1 nM | EC50 [2, 3]: 100 nM

Cc1c(O)cccc1C(=O)N[C@@H](Cc1ccccc1)[C@H](O)C(=O)N1CC(F)(F)C(C)(C)[C@H]1C(=O)NCc1ccncc1
Ki ([1]; read-out: Ki (nm)): < 0.1 nM | EC50 [2, 3]: 130 nM

Cc1cc(O)c(C)c(C(=O)N[C@@H](Cc2ccccc2)[C@H](O)C(=O)N2CC(F)(F)C(C)(C)[C@H]2C(=O)NCc2ccncc2)c1
Ki ([1]; read-out: Ki (nm)): 0.26 nM | EC50 [2, 3]: 110 nM

CCCNC(=O)[C@H]1N(C(=O)[C@@H](O)[C@H](Cc2cccc(F)c2)NC(=O)c2cc(C)cc(O)c2C)CC(F)(F)C1(C)C
Ki ([1]; read-out: Ki (nm)): < 0.1 nM | EC50 [2, 3]: 14 nM

Cc1c(O)cccc1C(=O)N[C@@H](Cc1ccccc1)[C@H](O)C(=O)N1CC(F)(F)C(C)(C)[C@H]1C(=O)NCC(C)(C)C
Ki ([1]; read-out: Ki (nm)): < 0.1 nM | EC50 [2, 3]: 4.7 nM

Cc1c(O)cccc1C(=O)N[C@@H](Cc1ccccc1)[C@H](O)C(=O)N1CC(F)(F)C(C)(C)[C@H]1C(=O)NCc1ccccc1F
Ki ([1]; read-out: Ki (nm)): < 0.1 nM | EC50 [2, 3]: 16 nM

C=CCNC(=O)[C@H]1N(C(=O)[C@@H](O)[C@H](Cc2ccccc2)NC(=O)c2cccc(O)c2C)CC(O)C1(C)C (some centres unmarked)
Ki ([1]; read-out: Ki (nm)): 3.6 nM | EC50 [2, 3]: 470 nM

Cc1c(O)cccc1C(=O)N[C@@H](Cc1ccccc1)[C@H](O)C(=O)N1CC(O)C(C)(C)[C@H]1C(=O)NCC(C)C (some centres unmarked)
Ki ([1]; read-out: Ki (nm)): 0.7 nM | EC50 [2, 3]: 450 nM

Cc1ccccc1CNC(=O)[C@H]1N(C(=O)[C@@H](O)[C@H](Cc2ccccc2)NC(=O)c2cccc(O)c2C)CC(O)C1(C)C (some centres unmarked)
Ki ([1]; read-out: Ki (nm)): < 0.1 nM | EC50 [2, 3]: 140 nM

COC1CN(C(=O)[C@@H](O)[C@H](Cc2ccccc2)NC(=O)c2cccc(O)c2C)[C@H](C(=O)NCc2ccccc2F)C1(C)C (some centres unmarked)
Ki ([1]; read-out: Ki (nm)): 0.34 nM | EC50 [2, 3]: 1000 nM

Cc1cc(O)c(C)c(C(=O)N[C@@H](Cc2ccccc2)[C@H](O)C(=O)N2CC(C)(O)C(C)(C)[C@H]2C(=O)NCc2ccccc2C)c1 (some centres unmarked)
Ki ([1]; read-out: Ki (nm)): < 0.1 nM | EC50 [2, 3]: 12 nM

Cc1ccccc1CNC(=O)[C@H]1N(C(=O)[C@@H](O)[C@H](Cc2ccccc2)NC(=O)c2cccc(O)c2C)CC(C)(O)C1(C)C (some centres unmarked)
Ki ([1]; read-out: Ki (nm)): < 0.1 nM | EC50 [2, 3]: 33 nM

Cc1c(O)cccc1C(=O)N[C@@H](Cc1ccccc1)[C@H](O)C(=O)N1COC(C)(C)[C@H]1C(=O)NC1CCc2ccccc21 (some centres unmarked)
Ki ([1]; read-out: Ki (nm)): < 0.1 nM | EC50 [2, 3]: 33 nM

Cc1cc(O)c(C)c(C(=O)N[C@@H](Cc2ccccc2)[C@H](O)C(=O)N2COC(C)(C)[C@H]2C(=O)NC2CCc3ccccc32)c1 (some centres unmarked)
Ki ([1]; read-out: Ki (nm)): < 0.1 nM | EC50 [2, 3]: 61 nM

CCCCNC(=O)[C@H]1N(C(=O)[C@@H](O)[C@H](Cc2ccccc2)NC(=O)c2cc(C)cc(O)c2C)CC(F)(F)C1(C)C
Ki ([1]; read-out: Ki (nm)): < 0.1 nM | EC50 [2, 3]: 23 nM

Cc1cc(O)c(C)c(C(=O)N[C@@H](Cc2ccccc2)[C@H](O)C(=O)N2CC(F)(F)C(C)(C)[C@H]2C(=O)NCc2ccncc2C)c1
Ki ([1]; read-out: Ki (nm)): < 0.1 nM | EC50 [2, 3]: 34 nM

Cc1cc(O)c(C)c(C(=O)N[C@@H](Cc2ccccc2)[C@H](O)C(=O)N2CC(F)(F)C(C)(C)[C@H]2C(=O)NCc2ccccn2)c1
Ki ([1]; read-out: Ki (nm)): < 0.1 nM | EC50 [2, 3]: 61 nM

CC[C@H](C)CNC(=O)[C@H]1N(C(=O)[C@@H](O)[C@H](Cc2ccccc2)NC(=O)c2cc(C)cc(O)c2C)CC(F)(F)C1(C)C
Ki ([1]; read-out: Ki (nm)): < 0.1 nM | EC50 [2, 3]: 7.5 nM

C=CCNC(=O)C1N(C(=O)[C@@H](O)[C@H](Cc2cccc(F)c2)NC(=O)c2cccc(O)c2C)CC(F)(F)C1(C)C (stereo partly drawn) [Example D10, (R)-3-((2S,3R)-4,4-Difluoro-1-[4-(3-fluoro-phenyl)-2-hydroxy-3-(3-hydroxy-2-methyl-benzoylamino)-butyryl])-3,3-dimethyl-pyrrolidine-2-carboxylic acid allylamide]
Ki ([1]; average, read-out: Ave. Ki): < 0.1 nM | EC50 [2, 4]: 16 nM

Cc1c(O)cccc1C(=O)N[C@@H](Cc1cccc(F)c1)[C@H](O)C(=O)N1CC(F)(F)C(C)(C)[C@H]1C(=O)NCC(C)C [Example D11, (S)-4,4-Difluoro-1-[(2S,3S)-4-(3-fluoro-phenyl)-2-hydroxy-3-(3-hydroxy-2-methyl-benzoylamino)-butyryl]-3,3-dimethyl-pyrrolidine-2-carboxylic acid isobutyl-amide]
Ki ([1]; average, read-out: Ave. Ki): < 0.1 nM | EC50 [2, 4]: 13 nM

C=CCNC(=O)[C@H]1N(C(=O)[C@@H](O)[C@H](Cc2ccccc2)NC(=O)c2cc(C)cc(O)c2C)CSC1(C)C [Example D12, (R)-3-[(2S,3S)-2-Hydroxy-3-(3-hydroxy-2,5-dimethyl-benzoylamino)-4-phenyl-butyryl]-5,5-dimethyl-thiazolidine-4-carboxylic acid allylamide]
Ki ([1]; average, read-out: Ave. Ki): 0.7 nM | EC50 [2, 4]: 16 nM

C=CCNC(=O)[C@H]1N(C(=O)[C@@H](O)[C@H](Cc2ccccc2)NC(=O)c2cc(C)cc(O)c2C)CC(F)(F)C1(C)C [Example D13, (S)-4,4-Difluoro-1-[(2S,3S)-2-hydroxy-3-(3-hydroxy-2,5-dimethyl-benzoylamino)-4-phenyl-butyryl]-3,3-dimethyl-pyrrolidine-2-carboxylic acid allylamide]
Ki ([1]; average, read-out: Ave. Ki): < 0.1 nM | EC50 [2, 4]: 17 nM

Cc1cc(O)c(C)c(C(=O)N[C@@H](Cc2ccccc2)[C@H](O)C(=O)N2CC(F)(F)C(C)(C)[C@H]2C(=O)NCC(F)(F)F)c1 [Example D16, (S)-4,4-Difluoro-1-[(2S,3S)-2-hydroxy-3-(3-hydroxy-2,5-dimethyl-benzoylamino)-4-phenyl-butyryl]-3,3-dimethyl-pyrrolidine-2-carboxylic acid (2,2,2-trifluoro-ethyl)-amide]
Ki ([1]; average, read-out: Ave. Ki): < 0.1 nM | EC50 [2, 4]: 18 nM

CCNC(=O)[C@H]1N(C(=O)[C@@H](O)[C@H](Cc2ccccc2)NC(=O)c2cc(C)cc(O)c2C)CC(F)(F)C1(C)C [Example D17, (S)-4,4-Difluoro-1-[(2S,3S)-2-hydroxy-3-(3-hydroxy-2,5-dimethyl-benzoylamino)-4-phenyl-butyryl]-3,3-dimethyl-pyrrolidine-2-carboxylic acid ethylamide]
Ki ([1]; average, read-out: Ave. Ki): < 0.1 nM | EC50 [2, 4]: 66 nM
